According to patent publication US20190224189A1 (priority 2016, published 2019):

Tests used:
[1] = target: EGFR WT (Homo sapiens, UniProt P00533); conditions: wild type EGFR and exon 20 insertion mutants, summary of Table 1
[2] = tested on: non-small cell lung cancer with insertion mutation in exon 20; conditions: cited from earlier work
[3] = tested on: stage IV lung adenocarcinoma carrying Exon 20 ins; conditions: cited from earlier work

Sequence of EGFR WT (P00533 668-1210 limits assumed): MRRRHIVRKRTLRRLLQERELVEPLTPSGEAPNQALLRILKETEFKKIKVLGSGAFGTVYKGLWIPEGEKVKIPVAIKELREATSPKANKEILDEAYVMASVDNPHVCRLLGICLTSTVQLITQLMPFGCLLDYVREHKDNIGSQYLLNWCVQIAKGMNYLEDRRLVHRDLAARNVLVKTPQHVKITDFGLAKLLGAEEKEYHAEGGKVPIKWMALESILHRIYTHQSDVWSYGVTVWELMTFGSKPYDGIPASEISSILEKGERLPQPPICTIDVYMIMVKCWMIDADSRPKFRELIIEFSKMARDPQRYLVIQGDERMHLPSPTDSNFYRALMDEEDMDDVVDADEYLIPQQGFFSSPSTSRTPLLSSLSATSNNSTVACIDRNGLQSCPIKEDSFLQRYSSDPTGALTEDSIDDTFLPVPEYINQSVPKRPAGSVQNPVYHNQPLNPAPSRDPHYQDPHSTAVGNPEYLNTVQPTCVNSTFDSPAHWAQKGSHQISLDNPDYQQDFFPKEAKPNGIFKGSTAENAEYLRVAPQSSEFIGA

Question: For CCOc1cc2ncc(C#N)c(Nc3ccc(OCc4ccccn4)c(Cl)c3)c2cc1NC(=O)/C=C/[C@H]1CCCN1C [Compound A, (E)-N-[4-[[3-chloro-4-(2-pyridylmethoxy)phenyl]amino]-3-cyano-7-ethoxy-6-quinolyl]-3-[(2R)-1-methylpyrrolidin-2-yl]prop-2-enamide], which “inhibitory effect on the enzymatic activity of recombinant human wild type EGFR and the mutated type with inserted mutation in exon 20 (in words)” value [1] is on record?
Answer: strong inhibitory effect

Question: For CN(C)C/C=C/C(=O)Nc1cc2c(Nc3ccc(F)c(Cl)c3)ncnc2cc1O[C@H]1CCOC1 [SHR141219 (BIBW-2992)], which “ORR evaluated through IRC” value ([2]; 23 patients with Exon 20 ins, 95% CI: 1.1%-28%) is on record?
Answer: 8.7%

Question: And the “median PFS” value ([2]; patients with Exon 20 ins, 95% CI: 1.8-4.2 months)?
Answer: 2.7 months

Question: And the “median OS” value ([2]; patients with Exon 20 ins, 95% CI: 4.1-14.2 months)?
Answer: 9.2 months

Question: Which results are given for C#Cc1cccc(Nc2ncnc3cc(OCCOC)c(OCCOC)cc23)c1 [erlotinib]?
Answer: partial remission (PR) rate ([3]; 3 of the 11 patients with Exon 20 ins): 27%; median TTP ([3]; patients with Exon 20 ins who received erlotinib): 3 months
